Laboratory results: ChEMBL document CHEMBL1201862, “PubChem BioAssay data set” (2004)
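Cells were grown in 96-well plates and exposed to each compound for 48 hours at five concentrations; endpoints were interpolated linearly between bracketing concentrations, or set to the highest concentration if not reached. GI50 is the concentration that inhibits growth by half.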 Calls of active or inactive are those of the source. Cut-off read from the data, not from the text of the source: active = GI50 up to about 1.1 µM and inactive = higher.

Key:
Test in all cases: NCI-60 cell line screen, 48 h
786-0 = system: 786-0
A498 = system: A498
A549 = system: A549
ACHN = system: ACHN
BT-549 = system: BT-549
CAKI-1 = system: CAKI-1
CCRF-CEM = system: CCRF-CEM
COLO 205 = system: COLO 205
DU-145 = system: DU-145
EKVX = system: EKVX
HCC 2998 = system: HCC 2998
HCT-116 = system: HCT-116
HCT-15 = system: HCT-15
HOP-62 = system: HOP-62
HOP-92 = system: HOP-92
HT-29 = system: HT-29
Hs-578T = system: Hs-578T
IGROV-1 = system: IGROV-1
K562 = system: K562
KM12 = system: KM12
M14 = system: M14
MCF7 = system: MCF7
MDA-MB-231 = system: MDA-MB-231
MDA-MB-435 = system: MDA-MB-435
MDA-N = system: MDA-N
MOLT-4 = system: MOLT-4
Malme-3M = system: Malme-3M
NCI-H23 = system: NCI-H23
NCI-H460 = system: NCI-H460
NCI-H522 = system: NCI-H522
NCI/ADR-RES = system: NCI/ADR-RES
OVCAR-3 = system: OVCAR-3
OVCAR-4 = system: OVCAR-4
OVCAR-5 = system: OVCAR-5
OVCAR-8 = system: OVCAR-8
PC-3 = system: PC-3
RPMI-8226 = system: RPMI-8226
RXF 393 = system: RXF 393
SF-268 = system: SF-268
SF-295 = system: SF-295
SK-MEL-28 = system: SK-MEL-28
SK-MEL-2 = system: SK-MEL-2
SK-MEL-5 = system: SK-MEL-5
SK-OV-3 = system: SK-OV-3
SNB-19 = system: SNB-19
SNB-75 = system: SNB-75
SW-620 = system: SW-620
TK-10 = system: TK-10
U-251 = system: U-251
UACC-257 = system: UACC-257
UACC-62 = system: UACC-62
UO-31 = system: UO-31
HL-60 = system: HL-60
SR = system: SR
T47D = system: T47D

Q: Which results are given for `CCOP(=O)(OCC)c1cc(-c2ccccc2)ccc1N`?
A: GI50 (786-0): > 100 µM (inactive); GI50 (A498): > 100 µM (inactive); GI50 (A549): > 100 µM (inactive); GI50 (ACHN): > 100 µM (inactive); GI50 (BT-549): > 100 µM (inactive); GI50 (CAKI-1): > 100 µM (inactive); GI50 (CCRF-CEM): > 100 µM (inactive); GI50 (COLO 205): > 100 µM (inactive); GI50 (DU-145): > 100 µM (inactive); GI50 (EKVX): 41.5 µM (inactive); GI50 (HCC 2998): > 100 µM (inactive); GI50 (HCT-116): 66.5 µM (inactive); GI50 (HCT-15): > 100 µM; GI50 (HOP-62): 37.2 µM (inactive); GI50 (HOP-92): 34.6 µM (inactive); GI50 (HT-29): > 100 µM (inactive); GI50 (Hs-578T): 52 µM (inactive); GI50 (IGROV-1): > 100 µM (inactive); GI50 (K562): > 100 µM (inactive); GI50 (KM12): > 100 µM (inactive); GI50 (M14): > 100 µM (inactive); GI50 (MCF7): > 100 µM (inactive); GI50 (MDA-MB-231): > 100 µM (inactive); GI50 (MDA-MB-435): > 100 µM (inactive); GI50 (MDA-N): > 100 µM (inactive); GI50 (MOLT-4): > 100 µM (inactive); GI50 (Malme-3M): > 100 µM (inactive); GI50 (NCI-H23): > 100 µM (inactive); GI50 (NCI-H460): > 100 µM (inactive); GI50 (NCI-H522): 61.8 µM (inactive); GI50 (NCI/ADR-RES): > 100 µM (inactive); GI50 (OVCAR-3): > 100 µM (inactive); GI50 (OVCAR-4): 89.1 µM (inactive); GI50 (OVCAR-5): > 100 µM (inactive); GI50 (OVCAR-8): > 100 µM (inactive); GI50 (PC-3): > 100 µM (inactive); GI50 (RPMI-8226): > 100 µM (inactive); GI50 (RXF 393): 33 µM (inactive); GI50 (SF-268): > 100 µM (inactive); GI50 (SF-295): 92.3 µM (inactive); GI50 (SK-MEL-28): > 100 µM (inactive); GI50 (SK-MEL-2): > 100 µM (inactive); GI50 (SK-MEL-5): > 100 µM (inactive); GI50 (SK-OV-3): > 100 µM (inactive); GI50 (SNB-19): > 100 µM (inactive); GI50 (SNB-75): 81.7 µM (inactive); GI50 (SW-620): > 100 µM (inactive); GI50 (TK-10): > 100 µM (inactive); GI50 (U-251): > 100 µM (inactive); GI50 (UACC-257): > 100 µM (inactive); GI50 (UACC-62): > 100 µM (inactive); GI50 (UO-31): > 100 µM (inactive)

Q: Which GI50 (786-0) does the source give for `CC1=C2C(=O)c3ccccc3C2=C(C)S(=O)(=O)O1` here?
A: > 10 µM (inactive)

Q: What about the GI50 (A549) of the same compound?
A: > 10 µM (inactive)

Q: What about the GI50 (ACHN) of the same compound?
A: > 10 µM (inactive)

Q: What about the GI50 (CAKI-1) of the same compound?
A: > 10 µM (inactive)

Q: What about the GI50 (CCRF-CEM) of the same compound?
A: > 10 µM (inactive)

Q: What about the GI50 (COLO 205) of the same compound?
A: > 10 µM (inactive)

Q: What about the GI50 (HL-60) of the same compound?
A: > 10 µM (inactive)

Q: What about the GI50 (HOP-62) of the same compound?
A: > 10 µM (inactive)

Q: What about the GI50 (IGROV-1) of the same compound?
A: > 10 µM (inactive)

Q: And the GI50 (K562)?
A: > 10 µM (inactive)

Q: What about the GI50 (M14) of the same compound?
A: > 10 µM (inactive)

Q: And the GI50 (MCF7)?
A: > 10 µM (inactive)

Q: What about the GI50 (MDA-MB-435) of the same compound?
A: > 10 µM (inactive)

Q: And the GI50 (MOLT-4)?
A: > 10 µM (inactive)

Q: What about the GI50 (Malme-3M) of the same compound?
A: > 10 µM (inactive)

Q: What about the GI50 (NCI-H23) of the same compound?
A: > 10 µM (inactive)

Q: And the GI50 (NCI-H460)?
A: > 10 µM (inactive)

Q: And the GI50 (NCI/ADR-RES)?
A: > 10 µM (inactive)

Q: What about the GI50 (OVCAR-4) of the same compound?
A: > 10 µM (inactive)

Q: What about the GI50 (OVCAR-5) of the same compound?
A: > 10 µM (inactive)

Q: What about the GI50 (RPMI-8226) of the same compound?
A: > 10 µM (inactive)

Q: And the GI50 (RXF 393)?
A: > 10 µM (inactive)

Q: And the GI50 (SF-268)?
A: > 10 µM (inactive)

Q: And the GI50 (SK-MEL-28)?
A: > 10 µM (inactive)

Q: And the GI50 (SK-MEL-2)?
A: > 10 µM (inactive)

Q: What about the GI50 (SK-MEL-5) of the same compound?
A: > 10 µM (inactive)

Q: What about the GI50 (SK-OV-3) of the same compound?
A: > 10 µM (inactive)

Q: And the GI50 (SNB-75)?
A: > 10 µM (inactive)

Q: And the GI50 (SR)?
A: > 10 µM (inactive)

Q: And the GI50 (SW-620)?
A: > 10 µM (inactive)

Q: And the GI50 (T47D)?
A: > 10 µM (inactive)

Q: What about the GI50 (U-251) of the same compound?
A: > 10 µM (inactive)

Q: And the GI50 (UACC-62)?
A: > 10 µM (inactive)
